Laboratory results as given in ChEMBL document CHEMBL5523766 (J Med Chem, 2024).

Tests used:
[1] = biological target: Tyrosine-protein kinase JAK1 (Homo sapiens, UniProt P23458); assay: Inhibition of human JAK1
[2] = biological target: AMPK alpha2/beta1/gamma1 (Homo sapiens, UniProt P54619+P54646+Q9Y478); assay: Inhibition of human AMPK alpha2/beta1/gamma1; format: protein-complex assay
[3] = Acute toxicity in Beagle dog assessed as change in serum creatinine level at 10 to 90 mg/kg,po once daily for 7 days; format: organism-based, Canis lupus familiaris; settings: in vivo, 168 h, dose 10-90 mg/kg, time 7 day
[4] = biological target: Tyrosine-protein kinase Lyn (Homo sapiens, UniProt P07948); assay: Inhibition of human LYN
[5] = biological target: CYP2D6 (Homo sapiens, UniProt P10635); assay: Time dependent inhibition of CYP2D6 (unknown origin) at 10 uM relative to control; format: ADME; settings: read-out: TDI
[6] = biological target: Receptor-type tyrosine-protein kinase FLT3 (Homo sapiens, UniProt P36888); assay: Inhibition of human FLT3
[7] = biological target: Serine/threonine-protein kinase BRSK2 (Homo sapiens, UniProt Q8IWQ3); assay: Inhibition of human BRSK2
[8] = Acute toxicity in Beagle dog assessed as change in body weight at 10 to 90 mg/kg,po once daily for 7 days; format: organism-based, Canis lupus familiaris; settings: in vivo, 168 h, dose 10-90 mg/kg, time 7 day
[9] = Tmax in ICR mouse at 50 mg/kg,po measured upto 24 hrs by LC-MS/MS analysis; format: ADME, organism-based; settings: in vivo
[10] = biological target: Interleukin-1 receptor-associated kinase 4 (Homo sapiens, UniProt Q9NWZ3); assay: Inhibition of human IRAK4
[11] = biological target: Serine/threonine-protein kinase ATR (Homo sapiens, UniProt Q13535); assay: Inhibition of human ATR
[12] = tested on: Granta-519; assay: Induction of apoptosis in human Granta-519 cells assessed as viable cells at 2000 nM incubated for 48 hrs by Annexin-V-FITC/propidium iodide staining based flow cytometry (reference value: 92.7 %); format: functional; settings: read-out: Activity
[13] = biological target: Tyrosine-protein kinase BTK (Homo sapiens, UniProt Q06187); assay: Inhibition of human BTK
[14] = Toxicity in BALB/c mouse xenografted with human A2780 cells assessed as change in body weight at 50 mg/kg,po bid for 3 weeks administrated 5 days weekly; format: organism-based; settings: in vivo, 504 h
[15] = Brain to plasma ratio in ICR mouse at 50 mg/kg,po measured upto 24 hrs by LC-MS/MS analysis; format: ADME, organism-based
[16] = Toxicity in BALB/c mouse xenografted with human PC-3 cells assessed as change in body weight at 50 mg/kg,po bid for 3 weeks administrated 5 days weekly; format: organism-based; settings: in vivo, 504 h
[17] = Cmax in ICR mouse at 50 mg/kg,po measured upto 24 hrs by LC-MS/MS analysis; format: ADME, organism-based; settings: in vivo
[18] = biological target: CYP2C9 (Homo sapiens, UniProt P11712); assay: Time dependent inhibition of CYP2C9 (unknown origin) at 10 uM relative to control; format: ADME; settings: read-out: TDI
[19] = AUCinfinity in ICR mouse at 50 mg/kg,po measured upto 24 hrs by LC-MS/MS analysis; format: ADME, organism-based; settings: in vivo
[20] = biological target: CYP1A2 (Homo sapiens, UniProt P05177); assay: Time dependent inhibition of CYP1A2 (unknown origin) at 10 uM relative to control; format: ADME; settings: read-out: TDI
[21] = biological target: Serine/threonine-protein kinase 17B (Homo sapiens, UniProt O94768); assay: Inhibition of human DRAK2
[22] = Acute toxicity in Beagle dog assessed as change in platelet count at 10 to 90 mg/kg,po once daily for 7 days; format: organism-based, Canis lupus familiaris; settings: in vivo, 168 h, dose 10-90 mg/kg, time 7 day
[23] = biological target: NUAK family SNF1-like kinase 1 (Homo sapiens, UniProt O60285); assay: Inhibition of human ARK5
[24] = biological target: DNA-dependent protein kinase catalytic subunit (Homo sapiens, UniProt P78527); assay: Inhibition of human DNA-PK
[25] = Half life in ICR mouse at 50 mg/kg,po measured upto 24 hrs by LC-MS/MS analysis; format: ADME, organism-based; settings: in vivo
[26] = AUClast in ICR mouse at 50 mg/kg,po measured upto 24 hrs by LC-MS/MS analysis; format: ADME, organism-based; settings: in vivo
[27] = biological target: Tyrosine-protein kinase Mer (Homo sapiens, UniProt Q12866); assay: Inhibition of human MER
[28] = tested on: Granta-519; assay: Induction of apoptosis in human Granta-519 cells assessed as viable cells at 1000 nM incubated for 48 hrs by Annexin-V-FITC/propidium iodide staining based flow cytometry (reference value: 92.7 %); format: functional; settings: read-out: Activity
[29] = biological target: Aurora kinase B (Homo sapiens, UniProt Q96GD4); assay: Inhibition of human Aurora B
[30] = Toxicity in BALB/c mouse xenografted with human CAPAN-1 cells assessed as change in body weight at 50 mg/kg,po once daily for 3 weeks administrated 4 days weekly in presence of gemcitabine; format: organism-based; settings: in vivo, 504 h
[31] = biological target: ATR/ATRIP (Homo sapiens, UniProt Q13535); assay: Inhibition of ATR/ATRIP (unknown origin) using 5-FAM-AK-17 as substrate preincubated with compound for 10 mins followed by ATP addition and measured after 240 mins by mobility shift assay; format: protein-complex assay
[32] = Apparent permeability across apical to basolateral side in dog MDCK-MDR1 cells; format: ADME, cell-based, Canis lupus familiaris
[33] = Apparent permeability across apical to basolateral side in human Caco-2 cells; format: ADME, cell-based
[34] = Toxicity in CB17-SCID mouse xenografted with human Granta-519 cells assessed as change in body weight at 50 mg/kg,po once daily for 3 weeks administrated 5 days weekly in presence of niraparib; format: organism-based; settings: in vivo, 504 h
[35] = Plasma protein binding in mouse; format: ADME, cell-free; settings: read-out: PPB (converted)
[36] = Apparent permeability across basolateral to apical side in dog MDCK-MDR1 cells; format: ADME, cell-based, Canis lupus familiaris
[37] = biological target: Serine/threonine-protein kinase mTOR (Homo sapiens, UniProt P42345); assay: Inhibition of human mTOR
[38] = biological target: CYP3A4 (Homo sapiens, UniProt P08684); assay: Time dependent inhibition of CYP3A4 (unknown origin) at 10 uM relative to control; format: ADME; settings: read-out: TDI
[39] = Lipophilicity, logD of compound at pH 7.4; format: physicochemical; settings: buffer
[40] = biological target: Cyclin-dependent kinase 2 (Homo sapiens, UniProt P24941); assay: Inhibition of human CDK2
[41] = Apparent permeability across basolateral to apical side in human Caco-2 cells; format: ADME, cell-based
[42] = tested on: Granta-519; assay: Induction of apoptosis in human Granta-519 cells assessed as viable cells at 500 nM incubated for 48 hrs by Annexin-V-FITC/propidium iodide staining based flow cytometry (reference value: 92.7 %); format: functional; settings: read-out: Activity
[43] = biological target: CYP2C19 (Homo sapiens, UniProt P33261); assay: Time dependent inhibition of CYP2C19 (unknown origin) at 10 uM relative to control; format: ADME; settings: read-out: TDI
[44] = Toxicity in BALB/c mouse xenografted with human HT-29 cells assessed as change in body weight at 50 mg/kg,po once daily for 4 weeks in presence of 3 Gy of ionizing radiation; format: organism-based; settings: in vivo, 672 h
[45] = biological target: Tyrosine-protein kinase Lck (Homo sapiens, UniProt P06239); assay: Inhibition of human LCK
[46] = biological target: Phosphatidylinositol 4,5-bisphosphate 3-kinase catalytic subunit alpha isoform (Homo sapiens, UniProt P42336); assay: Inhibition of human PI3Kalpha
[47] = biological target: Serine-protein kinase ATM (Homo sapiens, UniProt Q13315); assay: Inhibition of human ATM
[48] = Toxicity in CB17-SCID mouse xenografted with human Granta-519 cells assessed as change in body weight at 50 mg/kg,po bid for 3 weeks administrated 5 days weekly; format: organism-based; settings: in vivo, 504 h

Chain of Tyrosine-protein kinase Mer (Q12866 whole entry): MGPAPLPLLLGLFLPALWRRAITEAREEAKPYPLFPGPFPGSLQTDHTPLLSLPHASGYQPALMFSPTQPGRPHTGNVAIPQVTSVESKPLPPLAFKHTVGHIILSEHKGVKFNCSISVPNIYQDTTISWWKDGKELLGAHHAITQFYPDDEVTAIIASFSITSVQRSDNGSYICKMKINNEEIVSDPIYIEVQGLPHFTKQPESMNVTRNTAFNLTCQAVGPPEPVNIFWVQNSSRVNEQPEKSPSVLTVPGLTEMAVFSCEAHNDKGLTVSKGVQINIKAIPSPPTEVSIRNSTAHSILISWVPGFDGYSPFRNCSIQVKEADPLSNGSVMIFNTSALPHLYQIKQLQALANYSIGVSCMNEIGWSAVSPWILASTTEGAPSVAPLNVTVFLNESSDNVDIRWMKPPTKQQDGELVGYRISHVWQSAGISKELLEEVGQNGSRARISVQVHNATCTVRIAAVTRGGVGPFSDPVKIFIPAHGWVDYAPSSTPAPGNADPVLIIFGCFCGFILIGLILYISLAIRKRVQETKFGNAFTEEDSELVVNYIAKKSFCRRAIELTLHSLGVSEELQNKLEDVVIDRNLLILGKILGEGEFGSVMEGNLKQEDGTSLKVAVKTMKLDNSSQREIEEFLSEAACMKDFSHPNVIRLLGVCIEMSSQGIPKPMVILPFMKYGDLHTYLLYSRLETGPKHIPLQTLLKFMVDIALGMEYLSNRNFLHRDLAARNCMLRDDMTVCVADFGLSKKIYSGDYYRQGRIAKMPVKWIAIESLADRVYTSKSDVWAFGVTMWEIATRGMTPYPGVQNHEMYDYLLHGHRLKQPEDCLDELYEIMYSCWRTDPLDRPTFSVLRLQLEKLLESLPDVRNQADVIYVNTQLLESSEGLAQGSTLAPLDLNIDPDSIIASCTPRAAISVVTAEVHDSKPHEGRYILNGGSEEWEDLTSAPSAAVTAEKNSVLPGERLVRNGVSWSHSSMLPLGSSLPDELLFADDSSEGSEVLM
Chain of Serine-protein kinase ATM (Q13315 whole entry): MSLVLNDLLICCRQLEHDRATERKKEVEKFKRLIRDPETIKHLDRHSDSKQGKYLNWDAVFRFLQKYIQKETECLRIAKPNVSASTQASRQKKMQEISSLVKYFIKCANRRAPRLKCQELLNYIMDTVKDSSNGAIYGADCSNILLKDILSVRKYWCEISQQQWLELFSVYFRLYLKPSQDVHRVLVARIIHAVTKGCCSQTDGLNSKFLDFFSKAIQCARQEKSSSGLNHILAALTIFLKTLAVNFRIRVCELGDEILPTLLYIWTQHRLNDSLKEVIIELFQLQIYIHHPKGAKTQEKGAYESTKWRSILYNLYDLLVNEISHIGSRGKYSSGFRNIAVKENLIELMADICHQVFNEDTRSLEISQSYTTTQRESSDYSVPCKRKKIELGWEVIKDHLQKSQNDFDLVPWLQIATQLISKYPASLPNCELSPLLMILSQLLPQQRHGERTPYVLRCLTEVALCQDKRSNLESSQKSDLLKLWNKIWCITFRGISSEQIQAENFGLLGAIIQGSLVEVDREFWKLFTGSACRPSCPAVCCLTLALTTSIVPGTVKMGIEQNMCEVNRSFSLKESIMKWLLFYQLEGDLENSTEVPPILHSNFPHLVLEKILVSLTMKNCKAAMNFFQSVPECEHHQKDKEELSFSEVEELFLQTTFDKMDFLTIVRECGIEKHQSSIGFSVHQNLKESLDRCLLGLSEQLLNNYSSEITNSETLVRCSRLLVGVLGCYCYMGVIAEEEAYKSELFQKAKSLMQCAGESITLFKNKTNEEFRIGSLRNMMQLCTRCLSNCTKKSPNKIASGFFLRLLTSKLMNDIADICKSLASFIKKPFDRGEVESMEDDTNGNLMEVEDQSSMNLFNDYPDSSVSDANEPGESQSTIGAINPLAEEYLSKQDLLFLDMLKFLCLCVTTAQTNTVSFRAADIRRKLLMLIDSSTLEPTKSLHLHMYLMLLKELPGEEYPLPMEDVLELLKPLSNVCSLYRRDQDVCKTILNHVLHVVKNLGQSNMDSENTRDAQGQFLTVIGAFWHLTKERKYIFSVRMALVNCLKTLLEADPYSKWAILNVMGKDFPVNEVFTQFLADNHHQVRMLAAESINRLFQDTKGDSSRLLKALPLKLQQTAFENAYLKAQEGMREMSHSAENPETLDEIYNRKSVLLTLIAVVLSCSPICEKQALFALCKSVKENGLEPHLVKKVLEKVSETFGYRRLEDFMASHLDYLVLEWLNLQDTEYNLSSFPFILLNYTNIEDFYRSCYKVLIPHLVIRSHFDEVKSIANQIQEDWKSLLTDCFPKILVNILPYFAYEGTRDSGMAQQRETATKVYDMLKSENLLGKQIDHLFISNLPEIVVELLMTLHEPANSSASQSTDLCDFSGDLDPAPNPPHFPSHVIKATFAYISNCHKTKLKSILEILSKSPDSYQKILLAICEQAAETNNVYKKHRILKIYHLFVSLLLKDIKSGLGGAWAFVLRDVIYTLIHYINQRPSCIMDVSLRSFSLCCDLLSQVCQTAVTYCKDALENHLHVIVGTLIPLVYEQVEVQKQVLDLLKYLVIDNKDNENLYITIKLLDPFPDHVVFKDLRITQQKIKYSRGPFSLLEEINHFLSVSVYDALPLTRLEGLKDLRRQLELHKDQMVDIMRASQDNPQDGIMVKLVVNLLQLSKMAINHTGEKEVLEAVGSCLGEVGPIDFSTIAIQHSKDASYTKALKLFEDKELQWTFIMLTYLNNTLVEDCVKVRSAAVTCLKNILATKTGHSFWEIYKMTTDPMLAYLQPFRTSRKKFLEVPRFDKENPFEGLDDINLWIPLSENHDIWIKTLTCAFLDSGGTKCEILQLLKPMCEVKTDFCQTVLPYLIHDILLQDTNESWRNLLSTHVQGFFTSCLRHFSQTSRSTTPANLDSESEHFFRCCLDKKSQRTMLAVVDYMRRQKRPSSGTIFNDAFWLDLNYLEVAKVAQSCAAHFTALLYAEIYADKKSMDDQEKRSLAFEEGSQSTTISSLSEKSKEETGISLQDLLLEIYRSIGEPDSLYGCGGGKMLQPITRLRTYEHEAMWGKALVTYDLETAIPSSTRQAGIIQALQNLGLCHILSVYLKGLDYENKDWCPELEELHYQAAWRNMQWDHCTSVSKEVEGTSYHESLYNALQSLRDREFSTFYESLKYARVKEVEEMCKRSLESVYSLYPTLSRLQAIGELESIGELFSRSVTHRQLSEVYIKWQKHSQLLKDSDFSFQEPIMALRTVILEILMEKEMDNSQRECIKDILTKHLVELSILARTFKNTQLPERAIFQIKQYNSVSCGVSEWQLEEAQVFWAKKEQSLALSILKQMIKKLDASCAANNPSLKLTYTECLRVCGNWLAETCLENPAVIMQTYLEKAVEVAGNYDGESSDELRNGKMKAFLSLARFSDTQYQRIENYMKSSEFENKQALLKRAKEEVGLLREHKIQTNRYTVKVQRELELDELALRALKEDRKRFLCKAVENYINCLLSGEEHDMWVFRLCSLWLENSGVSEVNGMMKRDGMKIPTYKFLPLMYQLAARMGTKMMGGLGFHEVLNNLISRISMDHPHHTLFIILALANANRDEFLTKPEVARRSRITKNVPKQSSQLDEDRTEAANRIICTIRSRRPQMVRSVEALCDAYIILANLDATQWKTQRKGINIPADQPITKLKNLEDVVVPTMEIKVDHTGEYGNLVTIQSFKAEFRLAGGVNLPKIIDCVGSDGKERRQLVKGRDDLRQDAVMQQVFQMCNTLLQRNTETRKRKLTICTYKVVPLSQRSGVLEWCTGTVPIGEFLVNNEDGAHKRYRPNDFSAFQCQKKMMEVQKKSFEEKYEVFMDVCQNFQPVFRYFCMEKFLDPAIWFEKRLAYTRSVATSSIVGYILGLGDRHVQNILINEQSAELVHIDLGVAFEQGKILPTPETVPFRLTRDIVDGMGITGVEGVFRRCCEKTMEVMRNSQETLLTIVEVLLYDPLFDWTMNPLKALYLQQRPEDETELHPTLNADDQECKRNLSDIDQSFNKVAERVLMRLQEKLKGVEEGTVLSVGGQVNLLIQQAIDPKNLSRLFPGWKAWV
Chain of Tyrosine-protein kinase Lck (P06239 whole entry, canonical isoform): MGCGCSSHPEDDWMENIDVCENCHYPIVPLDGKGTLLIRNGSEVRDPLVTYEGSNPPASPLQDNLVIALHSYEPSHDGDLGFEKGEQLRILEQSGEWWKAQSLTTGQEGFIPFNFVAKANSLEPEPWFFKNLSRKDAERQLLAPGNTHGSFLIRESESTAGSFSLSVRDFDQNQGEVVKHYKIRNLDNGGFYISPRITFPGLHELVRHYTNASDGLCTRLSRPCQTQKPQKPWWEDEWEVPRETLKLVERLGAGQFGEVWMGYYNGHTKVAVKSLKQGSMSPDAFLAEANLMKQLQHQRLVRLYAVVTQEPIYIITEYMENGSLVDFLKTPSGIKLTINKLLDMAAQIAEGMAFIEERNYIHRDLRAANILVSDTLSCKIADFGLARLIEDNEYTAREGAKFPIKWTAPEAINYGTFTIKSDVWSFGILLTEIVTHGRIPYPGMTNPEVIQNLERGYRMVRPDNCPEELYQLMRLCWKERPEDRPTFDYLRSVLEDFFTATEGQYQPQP
Chain of CYP3A4 (P08684 whole entry): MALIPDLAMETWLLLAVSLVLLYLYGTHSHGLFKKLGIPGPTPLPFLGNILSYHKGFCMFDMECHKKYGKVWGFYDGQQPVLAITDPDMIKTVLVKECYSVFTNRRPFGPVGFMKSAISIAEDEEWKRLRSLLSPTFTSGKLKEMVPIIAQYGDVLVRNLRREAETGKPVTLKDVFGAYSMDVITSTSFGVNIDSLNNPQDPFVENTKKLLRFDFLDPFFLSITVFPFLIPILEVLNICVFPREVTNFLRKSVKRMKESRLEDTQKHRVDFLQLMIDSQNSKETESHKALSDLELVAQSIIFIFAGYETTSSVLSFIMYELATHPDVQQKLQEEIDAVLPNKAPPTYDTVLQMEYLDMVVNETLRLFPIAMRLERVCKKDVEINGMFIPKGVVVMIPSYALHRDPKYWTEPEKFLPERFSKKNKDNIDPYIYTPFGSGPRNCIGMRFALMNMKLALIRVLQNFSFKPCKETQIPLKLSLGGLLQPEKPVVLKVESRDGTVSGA

With C[C@@H]1COCCN1c1nc(-c2ccnc3[nH]ccc23)nc2c1ccn2S(C)(=O)=O the IC50 [1] was > 10 µM, the IC50 [2] was > 10 µM and the Activity [3] was “Toxic”. The IC50 [4] was > 10 µM, the inhibition at 10 µM [5] was 2% and the IC50 [6] was > 10 µM. For the same compound, the IC50 [7] was > 10 µM, the Activity [8] was “Non-Toxic” and the Tmax [9] was 1 h. For the same compound, the IC50 [10] was > 10 µM, the IC50 [11] was 0.0025 µM and the viability at 2 µM [12] was 76.9%. The IC50 [13] was > 10 µM, the Activity [14] was “Toxic” and the BPR [15] was 31%. The Activity [16] was “Toxic”, the Cmax [17] was 19800 ng/mL and the inhibition at 10 µM [18] was 7.09%. The AUC(0-inf) [19] was 140 µg·h/mL, the inhibition at 10 µM [20] was 37.5% and the IC50 [21] was > 10 µM. For the same compound, the Activity [22] was “Toxic”, the IC50 [23] was 7.31 µM and the IC50 [24] was 0.119 µM. For the same compound, the half-life [25] was 2.29 h, the AUC(0-t) at 24 h [26] was 140 µg·h/mL and the IC50 [27] was > 10 µM. The viability at 1 µM [28] was 81.3%, the IC50 [29] was > 10 µM and the Activity [30] was “Toxic”. The IC50 [31] was 0.0016 µM, the Papp A→B [32] was 41.9 ×10⁻⁶ cm/s and the Papp A→B [33] was 39.6 ×10⁻⁶ cm/s. The Activity [34] was “Toxic”, the fraction unbound [35] was 0.005 and the Papp B→A [36] was 51.2 ×10⁻⁶ cm/s. It also gave an IC50 [37] of 0.0458 µM, an inhibition at 10 µM [38] of 21.2% and a logD [39] of 3.61. For the same compound, the IC50 [40] was > 10 µM, the Papp B→A [41] was 32.5 ×10⁻⁶ cm/s and the viability at 0.5 µM [42] was 89.6%. The inhibition at 10 µM [43] was 12.1%, the Activity [44] was “Toxic” and the IC50 [45] was 2.59 µM. The IC50 [46] was 2.06 µM, the IC50 [47] was 3.21 µM and the Activity [48] was “Toxic”.
